Read-outs that look alike come from different tables or passages of the source.
Legend:
SARS-CoV-2 [1] = assay type: cell-based
MERS-CoV PLpro [2] = biological target: T1, MERS-CoV PLpro (Middle East respiratory syndrome-related coronavirus, UniProt K9N7C7); assay type: biochemical
MERS-CoV [3] = assay type: cell-based
SARS-CoV-2 PLpro [4] = biological target: T2, SARS-CoV-2 PLpro (Severe acute respiratory syndrome coronavirus 2, UniProt P0DTD1); assay type: biochemical
SARS-CoV-2 [5] = test: microbe, parasite or virus in culture; assay type: cell-based; conditions: Severe acute respiratory syndrome coronavirus 2, read-out: EC50 anti-SARS-CoV-2 activity
hCoV-OC43 = assay type: cell-based
SARS-CoV-2 PLpro [6] = biological target: T2, SARS-CoV-2 PLpro; assay type: cell-based
MERS-CoV PLpro [7] = biological target: T1, MERS-CoV PLpro; assay type: biochemical; remark: listed apart in the source
[8] = test system: Huh7, VeroE6/TMPRSS2, Calu-3, Caco-2, BSC1 cells and human embryonic lung fibroblasts (HELF)
MERS-CoV [9] = assay type: cell-based; remark: listed apart in the source
SARS-CoV-2 PLpro [10] = biological target: T2, SARS-CoV-2 PLpro; test: biochemical; assay type: biochemical
[11] = test system: SARS-CoV-2-infected Caco-2 cells; assay type: cell-based, human
SARS-CoV-2 [12] = assay type: cell-based; remark: listed apart in the source
MERS-CoV PLpro [13] = biological target: T1, MERS-CoV PLpro; assay type: cell-based
[14] = test system: MERS-CoV-infected Huh-7 cells; assay type: cell-based, human
MERS-CoV [15] = assay type: cell-based; remark: listed apart in the source
hCoV-229E = assay type: cell-based
Caco-2 and Huh-7 cells = assay type: cell-based, human
[16] = test system: cellular proteases (serine, cysteine and acid proteases) in Huh-7, Caco-2 and A549 lysates; assay type: biochemical, human
SARS-CoV-2 [17] = test system: SARS-CoV-2; set-up: species or system golden Syrian hamster; conditions: hamster, in vivo
human DUBs = assay type: biochemical
SARS-CoV-2 PLpro [18] = biological target: T2, SARS-CoV-2 PLpro; assay type: biochemical; remark: listed apart in the source
[19] = read-out: IC50 against SARS-CoV-2-PLpro

T1 sequence (K9N7C7 1552-1823 limits assumed): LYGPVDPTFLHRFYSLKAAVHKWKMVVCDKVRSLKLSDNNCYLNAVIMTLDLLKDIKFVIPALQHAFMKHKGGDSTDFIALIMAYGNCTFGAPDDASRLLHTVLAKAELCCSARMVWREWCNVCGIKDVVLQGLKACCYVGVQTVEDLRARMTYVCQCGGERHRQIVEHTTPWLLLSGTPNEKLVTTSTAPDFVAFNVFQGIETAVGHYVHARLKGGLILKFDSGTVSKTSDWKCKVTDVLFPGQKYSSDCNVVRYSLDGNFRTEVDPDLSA

Molecule: GRL0617 [reference compound]
- inhibition of virus replication by NP antigen immunofluorescence (SARS-CoV-2 [1]): marginal virus suppression
- effect on MERS-CoV-PLpro activity (MERS-CoV PLpro [2]): without impairing the MERS-CoV-PLpro activity
- inhibition of virus replication by NP antigen immunofluorescence (MERS-CoV [3]): marginal virus suppression
- modification of PLpro by HA-Ub-VS (SARS-CoV-2 PLpro [4]): almost completely eliminated

Molecule: O=C(Nc1ccccc1Cl)c1sc(=S)n2c1[nH]c(=O)c1ccccc12 [Compound F0213]
- EC50 (SARS-CoV-2 [5]): 4.5 µM
- decrease of viral yields (hCoV-OC43): around 1.5 log 10
- inhibition of virus replication by NP antigen immunofluorescence (SARS-CoV-2 [1]): significant inhibition of virus replication
- rescue of IFN-β, IRF3 and NF-κB reporter gene expression (SARS-CoV-2 PLpro [6]): rescued the genes expression in a dose-dependent manner
- cleavage of ISG15-AMC and Ubiquitin-AMC (MERS-CoV PLpro [7]): inhibited cleavage
- cytotoxicity in the matching cell lines [8]: negligible cytotoxicity
- antiviral EC50 against MERS-CoV compared with SARS-CoV-2 (MERS-CoV [9]): lower antiviral EC50 against MERS-CoV than SARS-CoV-2
- IC50 (SARS-CoV-2 PLpro [10]; [19]): 7.4 µM
- expression of IFN-responsive genes ISG15 and PKR [11]: significantly enhanced
- reduction of SARS-CoV-2 viral yields (SARS-CoV-2 [12]): more than 1 log 10
- rescue of IFN-β, IRF3 and NF-κB reporter gene expression (MERS-CoV PLpro [13]): rescued the genes expression in a dose-dependent manner
- transcription levels of ISG15 and PKR [14]: reduced
- decrease of viral yields (MERS-CoV [15]): about 3 log 10
- decrease of viral yields (hCoV-229E): about 2 log 10
- cellular antiviral signaling (Caco-2 and Huh-7 cells): potentiated the cellular antiviral signaling
- cellular protease activity [16]: not affected
- SARS-CoV-2 N expression in lung by immunofluorescence (SARS-CoV-2 [17]): reduced N expression
- SARS-CoV-2 genome copies in the lungs (SARS-CoV-2 [17]): suppression
- lung damage by H & E staining (SARS-CoV-2 [17]): improved morphology and milder infiltrations
- decrease of virus plaque-forming units in lung tissues (SARS-CoV-2 [17]; 5 mg/kg/day): 1-2 log 10
- efficacy by route on lung genome copies (SARS-CoV-2 [17]; 5 mg/kg/day): superior efficacy via PO route than that of IP injection
- inhibition of virus replication by NP antigen immunofluorescence (MERS-CoV [3]): significant inhibition of virus replication
- modification of cellular DUBs by HA-Ub-VS (human DUBs): no change was noted in the immunoblot pattern
- modification of PLpro by HA-Ub-VS (SARS-CoV-2 PLpro [4]): eliminated in the presence of GRL0617 but not F0213
- cleavage of ISG15-AMC and Ubiquitin-AMC (SARS-CoV-2 PLpro [18]): inhibited cleavage

Molecule: CCN1C(=O)C=CC1=O [NEM, N-ethyl-maleimide, reference compound]
- modification of cellular DUBs by HA-Ub-VS (human DUBs): diminished the modification of HA-Ub-VS on DUBs

Molecule: Cc1cccc(NC(=O)c2sc(=S)n3c2[nH]c(=O)c2cc4c(cc23)OCO4)c1 [Compound F0393]
- IC50 (SARS-CoV-2 PLpro [10]; [19]): 15.8 µM

Molecule: COc1cc2c(=O)[nH]c3c(C(=O)Nc4cc(Cl)ccc4C)sc(=S)n3c2cc1OC [Compound F0326]
- EC50 (SARS-CoV-2 [5]): 7.6 µM
- IC50 (SARS-CoV-2 PLpro [10]): 8.2 µM

Reference: US11986478B2 (priority 2021, dated 2024)
